The record followed here is PubChem BioAssay (NCI).

Molecules are shown by their SMILES.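 Where inhibition never reached the appropriate level, the endpoint shown equals the highest concentration tested. Otherwise, values were interpolated linearly from a five-concentration, 48-hour dose response in 96-well plates. GI50 = concentration required for 50% inhibition of growth. At the TGI there is no net growth.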

Test systems include NCI-H460 lung; EKVX NSCLC; NCI-H226 lung; CAKI-1 renal; K-562 leukemia; M14 melanoma; HOP-62 NSCLC; CCRF-CEM leukemia; COLO 205 colon; OVCAR-4 ovarian.
What all share (test): growth of human tumour cells (NCI), 48 h

Regarding `O=C(Cc1ccccc1)N/N=C(\C1=Nc2ccc([N+](=O)[O-])cc2NC1O)C(O)c1ccc([N+](=O)[O-])cc1` (stereo not drawn), the TGI in the experiment on NCI-H460 lung, in the experiment on EKVX NSCLC, in the experiment on NCI-H226 lung, with CAKI-1 renal, in the experiment on K-562 leukemia and with M14 melanoma was over 100 µM throughout. Moreover, the TGI in the experiment on HOP-62 NSCLC, with CCRF-CEM leukemia and with COLO 205 colon was over 100 µM throughout.
For the compound `Cc1cccc(C)c1NC(=O)CCCC(=O)C1CCC/C1=N\NC(=O)C(=O)NN` (stereo not drawn), the TGI in the experiment on NCI-H460 lung, with EKVX NSCLC, in the experiment with NCI-H226 lung, in the experiment on CAKI-1 renal, in the experiment on K-562 leukemia and in the experiment on OVCAR-4 ovarian was over 100 µM throughout. Further, the TGI in the experiment with M14 melanoma, in the experiment with CCRF-CEM leukemia and with COLO 205 colon was over 100 µM in each case.
Regarding `CC1=CC(=O)C(C(C)=Nc2ccccc2Cl)C(=O)O1` (stereo not drawn), the GI50 with NCI-H460 lung, in the experiment on EKVX NSCLC, in the experiment with NCI-H226 lung, in the experiment on CAKI-1 renal, in the experiment on K-562 leukemia and in the experiment on M14 melanoma was over 100 µM each time. In addition, the GI50 in the experiment on HOP-62 NSCLC, in the experiment on CCRF-CEM leukemia and in the experiment with COLO 205 colon was over 100 µM in each case. Further, the TGI with NCI-H460 lung, with EKVX NSCLC, in the experiment with NCI-H226 lung, in the experiment on CAKI-1 renal, with K-562 leukemia and in the experiment on M14 melanoma was over 100 µM throughout. The TGI with HOP-62 NSCLC, in the experiment with CCRF-CEM leukemia and in the experiment on COLO 205 colon was over 100 µM in each case.
For `CCOC(=O)c1cnn(-c2ccnc3c(C(F)(F)F)cccc23)c1N`, the GI50 in the experiment on NCI-H460 lung, with EKVX NSCLC, in the experiment on NCI-H226 lung, with CAKI-1 renal, with K-562 leukemia and with OVCAR-4 ovarian was over 100 µM throughout. Also, the GI50 in the experiment on HOP-62 NSCLC, in the experiment with CCRF-CEM leukemia and in the experiment with COLO 205 colon was over 100 µM throughout. In addition, the TGI in the experiment with NCI-H460 lung, with EKVX NSCLC, in the experiment with NCI-H226 lung, with CAKI-1 renal, in the experiment on K-562 leukemia and in the experiment on OVCAR-4 ovarian was over 100 µM each time. The TGI in the experiment with HOP-62 NSCLC, in the experiment on CCRF-CEM leukemia and in the experiment with COLO 205 colon was over 100 µM each time.
Turning to `Cc1c2ccncc2c(C)c2c1[nH]c1ccc(OC(C)(C)C)cc12`, the TGI in the experiment on EKVX NSCLC was 36.2 µM; in the experiment on NCI-H226 lung it was 14.8 µM; with CAKI-1 renal it was 3.4 µM; with K-562 leukemia, 4.93 µM; with OVCAR-4 ovarian it was 4.21 µM; in the experiment with M14 melanoma it was 14.9 µM. In addition, the TGI is 9.74 µM in the experiment on HOP-62 NSCLC, 5.77 µM with CCRF-CEM leukemia and 3.12 µM in the experiment on COLO 205 colon.
For `CCC1CN2CCc3cc(OC)c(OC)cc3C2CC1CC1c2cc(OC)c(OC)cc2CCN1C(=O)CNC(=O)OC(C)(C)C` (stereo not drawn), the TGI came out at 46.4 µM in the experiment with NCI-H460 lung; 32.9 µM in the experiment on EKVX NSCLC; 53 µM in the experiment with NCI-H226 lung; 65.1 µM with CAKI-1 renal; 14.9 µM with K-562 leukemia; 7.98 µM with OVCAR-4 ovarian. Also, the TGI in the experiment with CCRF-CEM leukemia was 15.2 µM; in the experiment on COLO 205 colon, 12.7 µM.
On to `COc1ccc2cc3n(c2c1)CCc1cc(OC)c(OC)cc1-3`, for which the TGI in the experiment on NCI-H460 lung, in the experiment with EKVX NSCLC, with NCI-H226 lung, in the experiment with CAKI-1 renal, with K-562 leukemia and in the experiment on OVCAR-4 ovarian was over 100 µM in each case. Besides, the TGI in the experiment with HOP-62 NSCLC, with CCRF-CEM leukemia and in the experiment on COLO 205 colon was over 100 µM in each case.
Take `FC(F)(F)C12C34C=CC5(CCC6(C=CC1(CC3)O6)C52C(F)(F)F)O4` (stereo not drawn): the TGI in the experiment on NCI-H460 lung, in the experiment with EKVX NSCLC, with NCI-H226 lung, with CAKI-1 renal, with K-562 leukemia and with OVCAR-4 ovarian was over 100 µM throughout. For the same compound, the TGI in the experiment on HOP-62 NSCLC, with CCRF-CEM leukemia and in the experiment on COLO 205 colon was over 100 µM in each case.
Turning to `N/N=C(\Cc1ccccc1)NN=C(N)N`, the TGI in the experiment with NCI-H460 lung, in the experiment with EKVX NSCLC, in the experiment with NCI-H226 lung, in the experiment with CAKI-1 renal, in the experiment on K-562 leukemia and in the experiment with OVCAR-4 ovarian was over 100 µM throughout. For the same compound, the TGI in the experiment with M14 melanoma, in the experiment on CCRF-CEM leukemia and in the experiment on COLO 205 colon was over 100 µM throughout.
Regarding `C=C(N=[N+]=[N-])c1cn(C2CC(O)C(CO)O2)c(=O)[nH]c1=O` (stereo not drawn), the TGI in the experiment with NCI-H460 lung, in the experiment with EKVX NSCLC, with NCI-H226 lung, with CAKI-1 renal, with K-562 leukemia and with M14 melanoma was over 100 µM in each case. The TGI in the experiment with HOP-62 NSCLC, in the experiment on CCRF-CEM leukemia and in the experiment on COLO 205 colon was over 100 µM in each case.
Regarding `COc1cnc2c(c1)C(=O)c1c-2n(CCCN2CCCC2)c(=O)c2cc(Cl)ccc12`, the GI50 was 0.0217 µM with NCI-H460 lung; 2.18 µM with EKVX NSCLC; 3.27 µM in the experiment on NCI-H226 lung; 0.034 µM with CAKI-1 renal; 0.792 µM with K-562 leukemia; 1.43 µM in the experiment with OVCAR-4 ovarian. Further, the values for the GI50 in the experiment with M14 melanoma, with CCRF-CEM leukemia and with COLO 205 colon were 0.872 µM, 0.025 µM and 0.161 µM, respectively. Also, the TGI in the experiment with NCI-H460 lung is 5.51 µM; in the experiment on EKVX NSCLC, 11.3 µM; in the experiment on NCI-H226 lung it was 14.4 µM; with CAKI-1 renal, 8.18 µM; in the experiment with K-562 leukemia it was 11.4 µM; in the experiment on OVCAR-4 ovarian it was 11.2 µM. In addition, the TGI in the experiment on M14 melanoma was 11.8 µM; in the experiment on CCRF-CEM leukemia, 9.05 µM; in the experiment on COLO 205 colon, 8.22 µM.
`Oc1cc(Cl)ccc1Oc1ccc(Cl)cc1Cl`: the GI50 in the experiment with NCI-H460 lung was 2.85 µM; with EKVX NSCLC, 3.04 µM; in the experiment with NCI-H226 lung, 2.32 µM; in the experiment with CAKI-1 renal, 4.84 µM; with OVCAR-4 ovarian, 2.79 µM; in the experiment with M14 melanoma it was 2.86 µM. The GI50 in the experiment on HOP-62 NSCLC was 2.27 µM; with CCRF-CEM leukemia, 3.36 µM; in the experiment on COLO 205 colon, 3.88 µM. The TGI in the experiment with NCI-H460 lung was determined as 8.3 µM; in the experiment with EKVX NSCLC, 11.9 µM; in the experiment on NCI-H226 lung, 6.82 µM; with CAKI-1 renal, 17.8 µM; in the experiment on OVCAR-4 ovarian, 9.41 µM; in the experiment on M14 melanoma, 7.24 µM. The figures for the TGI with HOP-62 NSCLC, with CCRF-CEM leukemia and with COLO 205 colon were 5.16 µM, 10.6 µM and 13.3 µM, respectively.
